From patent US9295732B2, “Conjugated TLR7 and/or TLR8 and TLR2 polycationic agonists” (CAYLA, priority 2013, dated 2016)

Key:
human TLR7 = target: T1, human TLR7 (Homo sapiens, UniProt Q9NYK1); experiment: HEK-Blue hTLR7 NF-κB/AP-1 SEAP reporter assay; format: cell-based; details: HEK-Blue hTLR7 cells, 10 μg/mL to 10 pg/ml, 24 hours, OD at 655 nm, FIG. 1
T1 construct: host or cells: HEK293 (HEK-Blue™ hTLR7)
T1 sequence (Q9NYK1 27-1049): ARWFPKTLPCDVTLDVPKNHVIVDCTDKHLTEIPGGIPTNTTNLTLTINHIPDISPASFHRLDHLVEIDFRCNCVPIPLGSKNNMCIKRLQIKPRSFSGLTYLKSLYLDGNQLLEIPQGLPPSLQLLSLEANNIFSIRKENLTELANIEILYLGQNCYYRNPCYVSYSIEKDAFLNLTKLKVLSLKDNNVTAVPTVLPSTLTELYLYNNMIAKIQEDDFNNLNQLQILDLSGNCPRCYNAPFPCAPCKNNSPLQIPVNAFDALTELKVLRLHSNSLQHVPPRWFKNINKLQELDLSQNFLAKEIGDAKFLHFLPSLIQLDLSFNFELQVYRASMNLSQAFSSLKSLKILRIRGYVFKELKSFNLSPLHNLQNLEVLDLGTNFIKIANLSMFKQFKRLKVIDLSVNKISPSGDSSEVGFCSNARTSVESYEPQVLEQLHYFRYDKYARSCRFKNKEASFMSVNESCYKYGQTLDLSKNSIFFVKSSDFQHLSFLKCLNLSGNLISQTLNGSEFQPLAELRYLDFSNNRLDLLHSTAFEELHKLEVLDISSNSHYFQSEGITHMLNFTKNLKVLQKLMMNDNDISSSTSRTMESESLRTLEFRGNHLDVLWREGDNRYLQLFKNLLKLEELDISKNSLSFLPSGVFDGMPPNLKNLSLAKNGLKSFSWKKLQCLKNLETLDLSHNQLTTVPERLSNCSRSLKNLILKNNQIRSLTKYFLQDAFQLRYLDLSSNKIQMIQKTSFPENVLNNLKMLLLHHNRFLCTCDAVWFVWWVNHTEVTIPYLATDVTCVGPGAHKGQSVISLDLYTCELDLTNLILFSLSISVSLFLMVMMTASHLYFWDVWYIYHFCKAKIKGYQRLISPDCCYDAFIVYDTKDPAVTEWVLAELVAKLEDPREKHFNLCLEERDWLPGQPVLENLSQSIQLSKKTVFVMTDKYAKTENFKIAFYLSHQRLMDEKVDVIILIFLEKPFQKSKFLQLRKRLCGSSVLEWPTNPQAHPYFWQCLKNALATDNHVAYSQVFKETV
Summary of the method: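 HEK293 cells stably expressing the given TLR, or RAW 264.7-derived cells (50,000 or 100,000 cells/well respectively), carry an NF-κB/AP-1-inducible SEAP reporter. Conjugated TLR7-TLR2 agonists at final 10 μg/mL to 10 pg/ml, 24 h at 37° C. SEAP read colorimetrically as OD at 655 nm in detection medium.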

[1] = system: ISG54 promoter activity in RAW-ISG54 reporter cells; experiment: IFN response assay, RAW-ISG54 luciferase reporter cells; format: cell-based, mouse; details: in complexes with pDNA 3:24 (w:w), overnight, FIG. 6A
Method: The effect of the pDNA:TLR7-TLR2 polyamine molecules complexes on inducing an interferon response was examined. pDNA:TLR7-TLR2 polyamine molecules mixtures (pDNA:TLR7-TLR2 polyamine molecules ratio 3:24, w:w) in serum-free medium or 5% glucose were prepared as described above and added to IFN reporter cells. Luciferase reporter cell lines were used to assay interferon response. A plasmid containing an interferon-inducible luciferase reporter gene was introduced into mouse RAW 264.7 macrophages and mouse B16 melanoma cells, giving rise to the RAW-ISG54 and B16-ISG54 reporter cell lines respectively. Expression of the luciferase reporter gene by the plasmid is under the control of an interferon-inducible promoter (I-ISG54) comprising five interferon-stimulated response elements (ISRE) and the minimal promoter of the human ISG-54K (Interferon Stimulation of a Gene encoding a 54 kDa protein) gene. The ISG-54K gene is induced by interferon regulatory factor 3 (IRF3), which has a key involvement in […] responses (Grandvaux et al. 2002) and the minimal promoter of the human ISG-54K gene contains two ISRE sites and fully inducible by type I interferons (IFN-α and IFN-β) and interferon regulatory factors (IRFs) (Wathelet et al. 1988; Grandvaux et al. 2002).
The RAW-ISG54 and B16-ISG54 reporter cell lines were seeded onto 96 well microtiter plates at 100,000 cells per well and 75,000 cells per well respectively. Cells were cultured in DMEM supplemented with 10% (v/v) heat inactivated fetal bovine serum (30 min at 56° C.), 4.5 g/I glucose, 2 mM L-glutamine, 50 U/ml penicillin, 50 μg/ml streptomycin, 100 μg/ml Normocin™ (InvivoGen) together with pDNA:TLR7-TLR2 polyamine complexes at 37° C. overnight. pDNA:TLR7-TLR2 polyamine molecules complexes were prepared as described above prior to adding to the IFN reporter cells. The induced luciferase expression was assessed in the reporter cell lines using a coelenterazine-base luminescence assay reagent, the Quanti-Luc™ (InvivoGen). Secreted luciferase activity was determined by bioluminescence quantification of the cell culture media using a microplate luminometer (FLUOstar OPTIMA from BMG Labtech).

ability to activate hTLR7 (human TLR7) | Molecule | ability to induce an IFN response in RAW-ISG54 reporter cells [1]
activate hTLR7 | CCCCCCCCCCCCCCCC(=O)OCC(CSC[C@H](N)C(=O)N[C@@H](CCC(=O)NCCCNCCCCNCCCN)C(=O)Nc1ccc(Cn2c(O)nc3c(N)nc(NCCCC)nc32)cc1)OC(=O)CCCCCCCCCCCCCCC (stereo partly drawn) [CL527, (6R,9S)-6,25-diamino-9-(4-((6-amino-2-(butylamino)-8-hydroxy-9H-purin-9-yl)methyl)phenylcarbamoyl)-7,12-dioxo-4-thia-8,13,17,22-tetraazapentacosane-1,2-diyl dipalmitate] | induce an IFN response in RAW-ISG54 reporter cells
activate hTLR7 | CCCCCCCCCCCCCCCC(=O)OCC(CSC[C@H](N)C(=O)NCCCNCCCCNCCCNC(=O)CNC(=O)c1ccc(Cn2c(O)nc3c(N)nc(NCCCC)nc32)cc1)OC(=O)CCCCCCCCCCCCCCC (stereo partly drawn) [CL553, (20R)-20-amino-1-(4-((6-amino-2-(butylamino)-8-hydroxy-9H-purin-9-yl)methyl)phenyl)-1,4,19-trioxo-22-thia-2,5,9,14,18-pentaazapentacosane-24,25-diyl dipalmitate] | induce an IFN response in RAW-ISG54 reporter cells

More lines, now with the values behind:

Molecule | ability to activate hTLR7 (human TLR7) | ability to induce an IFN response in RAW-ISG54 reporter cells [1]
CCCCCCCCCCCCCCCC(=O)OCC(CSC[C@H](N)C(=O)N[C@@H](COC(=O)c1ccc(Cn2c(O)nc3c(N)nc(NCCCC)nc32)cc1)C(=O)NCCCNCCCCNCCCN)OC(=O)CCCCCCCCCCCCCCC (stereo partly drawn) [CL514, (6R,9S)-6,23-diamino-9-((4-((6-amino-2-(butylamino)-8-hydroxy-9H-purin-9-yl)methyl)benzoyloxy)methyl)-7,10-dioxo-4-thia-8,11,15,20-tetraazatricosane-1,2-diyl dipalmitate] | activate hTLR7 | induce an IFN response in RAW-ISG54 reporter cells
CCCCCCCCCCCCCCCC(=O)N[C@@H](CSCC(COC(=O)CCCCCCCCCCCCCCC)OC(=O)CCCCCCCCCCCCCCC)C(=O)N[C@@H](CO)C(=O)N[C@@H](CCCCN)C(=O)N[C@@H](CCCCN)C(=O)N[C@@H](CCCCN)C(=O)N[C@@H](CCCCN)C(=O)Nc1ccc(Cn2c(O)nc3c(N)nc(NCCCC)nc32)cc1 (stereo partly drawn) [CL534, ((6R,9S,12S,15S,18S,21S)-25-amino-21-(4-((6-amino-2-(butylamino)-8-hydroxy-9H-purin-9-yl)methyl)phenylcarbamoyl)-12,15,18-tris(4-aminobutyl)-9-(hydroxylmethyl)-7,10,13,16,19-pentaoxo-6-palmitamido-4-thia-8,11,14,17,20-pentaazapentacosane-1,2-diyl dipalmitate] | activate hTLR7 | –
(6S,9S,12S,15S,18S,21R)-6,25-diamino-21-(4-((6-amino-2-(butylamino)-8-hydroxy-9H-purin-9-yl)methyl)phenylcarbamoyl)-12,15,18-tris(4-aminobutyl)-9-(hydroxyl methyl)-7,10,13,16,19-pentaoxo-4-thia-8,11,14,17,20-pentaazapentacosane-1,2-diyl dipalmitate [CL413] | activate hTLR7 | induce an IFN response in RAW-ISG54 reporter cells
